Source: US20200297820A1, “STIMULATION OF HUMAN MEIBOMIAN GLAND FUNCTION” (The Schepens Eye Research Institute, Inc., priority 2013, published 2020)

Experiments:
[1] = system: immortalized human meibomian gland cells; test: 13-cis RA-induced late apoptosis/necrosis; type: cell-based
[2] = system: human meibomian gland epithelial cells; test: Immunoblot of signaling pathways (Akt, FoxO1, ERK, JAK2/STAT5); type: cell-based
Experimental: The disclosure turns now to sodium dodecyl sulfate-polyacrylamide gel, electrophoresis, and immunoblots. Cells were directly lysed in Laemmli buffer supplemented with 1% protease inhibitor cocktail (Sigma-Aldrich) and 5% β-mercaptoethanol (Sigma-Aldrich). Lysates were heated at 95° C. for 10 minutes, separated by sodium dodecyl sulfate-polyacrylamide gel electrophoresis on 10% Tris-glycine precast gels, and transferred to polyvinylidene difluoride membranes. Rabbit or mouse antibodies used were specific for phosphorylated Akt (p-Akt), pan-Akt, p-FoxO1, FoxO1, p-JAK2, JAK2, and β-actin; for p-ERK, ERK-2, STAT5, and the precursor form of SREBP-1; and for p-STAT5. Membranes were blocked with 5% bovine serum albumin in Tris-buffered saline containing 0.01% polysorbate 20. All primary antibodies were diluted to 1:1000 in blocking buffer except for p-Akt (1:4000), p-ERK (1:2000), ERK-2 (1:4000), SREBP-1 (1:200), and β-actin (1:10 000). Horseradish peroxidase-conjugated secondary antibodies were goat anti-rabbit IgG and Fc-specific goat anti-mouse IgG diluted to 1:5000. Proteins were visualized with enhanced chemiluminescent substrate or with ultrasensitive chemiluminescent substrate. Densitometry was performed with image-processing software.
To determine whether IGF-1 promotes the phosphorylation of Akt in human meibomian gland epithelial cells, cells were cultured under proliferating or differentiating conditions and then exposed to IGF-1 for 15 minutes.
FIGS. 9a, 9b, and 9c illustrate the effects of insulin-like growth factor 1 (IGF-1) and growth hormone (GH) on signaling pathways in human meibomian gland epithelial cells. Cells were cultured in keratinocyte serum-free medium containing epidermal growth factor (EGF) and bovine pituitary extract (BPE) for 2 days and then keratinocyte serum-free medium alone overnight or were cultured in 10% fetal bovine serum (FBS) medium for 5 to 7 days and in 1% FBS medium overnight. Cells were then incubated with vehicle or a 10 μM concentration of LY294002 for 2 hours, followed by IGF-1 or GH treatment for 15 minutes. Cell lysates were evaluated on immunoblotting. […] These experiments were repeated at least 3 times with similar results.
To assess whether GH activates Akt, FoxO1, ERK-2, or its classic (i.e., JAK2 and STAT5) signaling pathways in human meibomian gland epithelial cells, cells were cultured in proliferating or differentiating media, and were exposed to a 10 nM concentration of GH for 15 minutes, and processed for immunoblot analyses. […]

[3] = system: immortalized human meibomian gland epithelial cells; test: LipidTOX green neutral lipid staining (lipid accumulation); type: cell-based; conditions: for lipid accumulation: 10^−8 M
Experimental: (§1) As an example of these experiments, immortalized human meibomian gland epithelial cells were cultured in the presence or absence of 10% fetal bovine serum. Cells were treated with an ethanol vehicle or azithromycin (10 μg/ml; Santa Cruz Biotechnology) for varying time periods. Cellular morphological appearance was recorded, cells were counted with a hemocytometer, and lipid accumulation was assessed by staining the cells with LipidTOX green neutral lipid stain (Invitrogen, Grand Island, N.Y.), according to reported methods. Staining fluorescent intensities were quantified by using ImageJ (http://rsbweb.nih.gov/ij/index.html). Statistical analyses were performed with Student's t-test (two-tailed, unpaired).
(§2) Immortalized human meibomian gland epithelial cells (IHMGECs; passages 20-22) were cultured in the presence or absence of 10% fetal bovine serum. Cells were treated with the ethanol vehicle or azithromycin (10 μg/mL) for varying periods. Cellular morphological appearance was recorded, cells were counted with a hemocytometer, and lipid accumulation was assessed by staining cells with LipidTOX green neutral lipid stain (Invitrogen Corp). Staining fluorescent intensities were quantified using ImageJ software (http://rsbweb.nih.gov/ij/index.html). Statistical analyses were performed with t test (2-tailed, unpaired).
Cell numbers were enumerated with a hemocytometer. Cellular lipid and lysosome accumulation were examined by staining cells with: Filipin III (a fluorometric probe for identifying unesterified cholesterol), LipidTOX green neutral lipid stain, and LysoTracker® Red DND-99 (a fluorescent technique designed for labeling acidic organelles such as lysosomes). Lysosomal lamellar bodies were identified by transmission electron microscopy. In brief, after culture and treatment on 24 mm polycarbonate membrane transwell inserts (0.4 μm pore size), cells were fixed in a solution of 2% formaldehyde+2.5% glutaraldehyde, in 0.08 M sodium cacodylate buffer, pH 7.4, post-fixed with 2% osmium tetroxide in 0.1 M sodium cacodylate buffer, and stained en bloc with 2% aqueousuranyl acetate. […] Cross sections (1 μM) were stained with 1% toluidine blue in 1% sodium tetraborate solution. Ultra-thin sections (60-90 nm) were imaged with a transmission electron microscope interfaced with a digital CCD camera. For biochemical assessments, cellular lipids were extracted with chloroform and methanol from samples with the same amount of protein. Lipids were then evaluated with high-performance thin-layer chromatography. With regard to the staining results, three Filipin, five LipidTox and four LysoTracker studies were conducted, and each experiment was performed in duplicate. Four random pictures were taken of each group, and four random areas were selected for the measurement of fluorescent intensities. The HPTLC experiments were performed in duplicate more than three times. Image data were quantified with ImageJ (http://rsbweb.nib.gov/ij/index.html). Electron microscopic analyses were performed in triplicate.
The experiment included green neutral lipid staining. Immortalized human meibomian gland epithelial cells were cultured in slides treated to facilitate cell growth in FBS-containing medium in the presence or absence of IGF-1, anti-IGF-1R, and/or GH. Media were replaced every 2 to 3 days for a total of 6 days, at which time cells were washed and fixed in 4% paraformaldehyde for 30 minutes. After additional washes, cells were stained with green neutral lipid stain in a humid chamber for 30 minutes. Coverslips were mounted on slides with an antifade reagent that contains 4′,6-diamidino-2-phenylindole nuclear stain and permitted to dry overnight before imaging with a microscope. Fluorescence intensity was quantified using image-processing software.

[4] = system: immortalized human meibomian gland epithelial cells; test: Cell proliferation, cells counted with a hemocytometer; type: cell-based; conditions: insulin
Experimental: as §1, §2
Regarding cell proliferation assay, the human meibomian gland epithelial cells and LNCaP cells were cultured in 12-well plates in designated media and then exposed to IGF-1 or GH for defined periods. At experimental termination, cells were trypsinized and counted with a hemocytometer.
FIGS. 10a, 10b, and 10c illustrate the influence of IGF-1 on the proliferation of human meibomian gland epithelial cells. Cells were cultured (100,000 cells/well in 12-well plates, 3 wells per group) in basal, proliferating, and/or differentiating media and treated with IGF-I for 2 to 6 days. […] P values are for post hoc comparison compared with the control value. […] ANOVA indicates analysis of variance; EGF-BPE, epidermal growth factor-bovine pituitary extract; KSFM, keratinocyte serum-free medium. All comparisons are with control value. Whiskers mark SEM. aP<0.05 compared with the control value, post hoc test.

[5] = one trial; cited from earlier work

## CC1=C(/C=C/C(C)=C/C=C/C(C)=C\C(=O)O)C(C)(C)CCC1 [13-cis RA]
[1]
  induction of late apoptosis/necrosis: induced late apoptosis/necrosis

## C[C@]12CCC(=O)C[C@@H]1CC[C@@H]1[C@@H]2CC[C@]2(C)[C@@H](O)CC[C@@H]12 [Dihydrotestosterone]
[2]
  phosphorylation of extracellular-signal-regulated kinases (ERKs): increase the phosphorylation
[3]
  lipid accumulation: marked lipid accumulation

## CC(=O)[C@H]1CC[C@H]2[C@@H]3CCC4=CC(=O)CC[C@]4(C)[C@H]3CC[C@]12C [progesterone]
[3]
  lipid accumulation: marked lipid accumulation

## Insulin: insulin, an IGF-1 analogue
[4]
  cell proliferation: promotes meibomian gland epithelial cell proliferation
[2]; cells in serum-containing medium 5-7 days before treatment
  activation of AKT signaling pathway: dose-dependent manner
[3]; insulin
  accumulation of neutral lipids: promotes meibomian gland epithelial cell accumulation of neutral lipids

B1: figitumumab: human IgG2 monoclonal antibody that prevents the binding of IGF-1 to its receptor (antibody, chains of the INN, looked up)
heavy: EVQLLESGGGLVQPGGSLRLSCTASGFTFSSYAMNWVRQAPGKGLEWVSAISGSGGTTFYADSVKGRFTISRDNSRTTLYLQMNSLRAEDTAVYYCAKDLGWSDSYYYYYGMDVWGQGTTVTVSSASTKGPSVFPLAPCSRSTSESTAALGCLVKDYFPEPVTVSWNSGALTSGVHTFPAVLQSSGLYSLSSVVTVPSSNFGTQTYTCNVDHKPSNTKVDKTVERKCCVECPPCPAPPVAGPSVFLFPPKPKDTLMISRTPEVTCVVVDVSHEDPEVQFNWYVDGVEVHNAKTKPREEQFNSTFRVVSVLTVVHQDWLNGKEYKCKVSNKGLPAPIEKTISKTKGQPREPQVYTLPPSREEMTKNQVSLTCLVKGFYPSDIAVEWESNGQPENNYKTTPPMLDSDGSFFLYSKLTVDKSRWQQGNVFSCSVMHEALHNHYTQKSLSLSPG
light: DIQMTQFPSSLSASVGDRVTITCRASQGIRNDLGWYQQKPGKAPKRLIYAASRLHRGVPSRFSGSGSGTEFTLTISSLQPEDFATYYCLQHNSYPCSFGQGTKLEIKRTVAAPSVFIFPPSDEQLKSGTASVVCLLNNFYPREAKVQWKVDNALQSGNSQESVTEQDSKDSTYSLSSTLTLSKADYEKHKVYACEVTHQGLSSPVTKSFNRGEC
[5]
  most common adverse effect: DED
